Some results are limits rather than exact numbers.

The target of the first assay is MCH receptor (Homo sapiens, UniProt Q99705). Description: High throughput functional screening FLIPR/FDSS6000: inhibition of MCH-evoked intracellular Ca2+ changes. Conditions: class by percent of control at 10^-7 M or IC50. Format: cell-based. Summed up:
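Fluo4 fluorescence (Ex 488 nm, Em 530 nm) tracked MCH-evoked [Ca2+]i transients over 290 s by FLIPR or FDSS. Cells carried a constitutively active, non-endogenous receptor version. Compounds were added 3 min before a 50 nM MCH challenge.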
In the case of `COc1cc([N+](=O)[O-])ccc1NC(=S)N[C@H]1CC[C@@H](Nc2nc(N(C)C)c3ccccc3n2)CC1` [compound 220, N-(cis-4-{[4-(dimethylamino)quinazolin-2-yl]amino}cyclohexyl)-N′-(2-methoxy-4-nitrophenyl)thiourea], the class is on record as 1 (Class 1: The value of percent of control at 10^−7 M was less than 40% or the value of IC50 was less than 50 nM.).

As to `CN(C)c1nc(N[C@H]2CC[C@@H](CNC(=O)NCc3ccccc3F)CC2)nc2ccccc12` [compound 499, N-[(cis-4-{[4-(dimethylamino)quinazolin-2-yl]amino}cyclohexyl)methyl]-N′-(2-fluorobenzyl)urea], the class was 2 (Class 2: The value of percent of control at 10^−7 M was from 40% to 60% or the value of IC50 was from 50 nM to 200 nM.).

Turning to `Cc1cccc(C(C)C)c1NC(=O)NC[C@H]1CC[C@@H](Nc2nc(N(C)C)c3ccccc3n2)CC1` [compound 501], the class is 1 (Class 1: The value of percent of control at 10^−7 M was less than 40% or the value of IC50 was less than 50 nM.).

Regarding `CN(C)c1nc(N[C@H]2CC[C@@H](CNC(=S)Nc3cc(F)ccc3Br)CC2)nc2ccccc12` [compound 785], the class is reported as 3 (Class 3: The value of percent of control at 10^−7 M was more than 60% or the value of IC50 was more than 200 nM.).

For `CN(C)c1nc(N[C@H]2CC[C@@H](NC(=S)Nc3ccc(F)c(C(F)(F)F)c3)CC2)nc2ccccc12` [compound 236], the class is 3 (Class 3: The value of percent of control at 10^−7 M was more than 60% or the value of IC50 was more than 200 nM.).

As for `COc1cccc(CNC(=S)N[C@H]2CC[C@@H](Nc3nc(N(C)C)c4ccccc4n3)CC2)c1` [compound 309, N-(cis-4-{[4-(dimethylamino)quinazolin-2-yl]amino}cyclohexyl)-N′-(3-methoxybenzyl)thiourea], the class is 2 (Class 2: The value of percent of control at 10^−7 M was from 40% to 60% or the value of IC50 was from 50 nM to 200 nM.).

On to `CCCCc1ccc(NC(=S)N[C@H]2CC[C@@H](Nc3nc(N(C)C)c4ccccc4n3)CC2)c(C)c1` [compound 385], for which the class was 1 (Class 1: The value of percent of control at 10^−7 M was less than 40% or the value of IC50 was less than 50 nM.).

For the molecule `CN(C)c1nc(N[C@H]2CC[C@@H](NC(=O)Nc3cc(F)cc4c3OCOC4)CC2)nc2ccccc12` [compound 349, N-(cis-4-{[4-(dimethylamino)quinazolin-2-yl]amino}cyclohexyl)-N′-(6-fluoro-4H-1,3-benzodioxin-8-yl)urea], the class is given as 2 (Class 2: The value of percent of control at 10^−7 M was from 40% to 60% or the value of IC50 was from 50 nM to 200 nM.).

Consider `CC(=O)c1ccc(NC(=O)NC[C@H]2CC[C@@H](Nc3nc(N(C)C)c4ccccc4n3)CC2)cc1` [compound 407], for which the class is 3 (Class 3: The value of percent of control at 10^−7 M was more than 60% or the value of IC50 was more than 200 nM.).

Take `CCOc1ccc(NC(=O)NC[C@H]2CC[C@@H](Nc3nc(N(C)C)c4ccccc4n3)CC2)cc1` [compound 550]: the class is recorded as 3 (Class 3: The value of percent of control at 10^−7 M was more than 60% or the value of IC50 was more than 200 nM.).

Turning to `COC(=O)c1cccc(NC(=O)NC[C@H]2CC[C@@H](Nc3nc(N(C)C)c4ccccc4n3)CC2)c1` [compound 527], the class is recorded as 3 (Class 3: The value of percent of control at 10^−7 M was more than 60% or the value of IC50 was more than 200 nM.).

Turning to `CN(C)c1nc(N[C@H]2CC[C@@H](CNC(=S)Nc3cc(Cl)c(Cl)c(Cl)c3Cl)CC2)nc2ccccc12` [compound 667], the class is on record as 3 (Class 3: The value of percent of control at 10^−7 M was more than 60% or the value of IC50 was more than 200 nM.).

As to `CCc1ccccc1NC(=O)NC[C@H]1CC[C@@H](Nc2nc(N(C)C)c3ccccc3n2)CC1` [compound 494, N-[(cis-4-{[4-(dimethylamino)quinazolin-2-yl]amino}cyclohexyl)methyl]-N′-(2-ethylphenyl)urea], the class is on record as 1 (Class 1: The value of percent of control at 10^−7 M was less than 40% or the value of IC50 was less than 50 nM.).

With `CN(C)c1nc(N[C@H]2CC[C@@H](CNC(=O)Nc3ccc(Cl)c(C(F)(F)F)c3)CC2)nc2ccccc12` [compound 548], the class was 3 (Class 3: The value of percent of control at 10^−7 M was more than 60% or the value of IC50 was more than 200 nM.).

Turning to “N-[(cis-4-{[4-(dimethylamino)quinazolin-2-yl]amino}cyclohexyl)methyl]-N′-(2-methoxy-4-nitrophenyl)urea [compound 507]”, the class is on record as 2 (Class 2: The value of percent of control at 10^−7 M was from 40% to 60% or the value of IC50 was from 50 nM to 200 nM.).

Consider `CN(C)c1nc(N[C@H]2CC[C@@H](CNC(=S)NCc3cccc(F)c3)CC2)nc2ccccc12` [compound 732], for which the class is 3 (Class 3: The value of percent of control at 10^−7 M was more than 60% or the value of IC50 was more than 200 nM.).

Staying with this assay, now noted: class by percent of control at 10^-7 M or by IC50; read-out: class.
In the case of `CN(C)c1nc(N[C@H]2CC[C@@H](NC(=O)Nc3ccc(Cl)cc3[N+](=O)[O-])CC2)nc2ccccc12` [compound 147], the IC50 was above 200 nM.

`CN(C)c1nc(N[C@H]2CC[C@@H](NC(=S)Nc3cc(F)ccc3F)CC2)nc2ccccc12` [compound 167]: the IC50 is above 200 nM.

Regarding `CN(C)c1nc(N[C@H]2CC[C@@H](CNC(=S)NCCN3CCCCC3)CC2)nc2ccccc12` [compound 813], the IC50 was above 200 nM.

As for `CCOC(=O)CNC(=O)N[C@H]1CC[C@@H](Nc2nc(N(C)C)c3ccccc3n2)CC1` [compound 28], the IC50 was above 200 nM.

In the case of `CCCCNC(=S)N[C@H]1CC[C@@H](Nc2nc(N(C)C)c3ccccc3n2)CC1` [compound 159], the IC50 is above 200 nM.

Consider `Cc1cccc(Cl)c1NC(=O)N[C@H]1CC[C@@H](Nc2nc(N(C)C)c3ccccc3n2)CC1` [compound 90], for which the IC50 is below 50 nM.

Staying with this assay, now noted: class by percent of control at 10^−7 M or by IC50; read-out: class.
`CC(NC(=O)[C@H]1CC[C@@H](Nc2nc(N(C)C)c3ccccc3n2)CC1)c1ccc(Br)cc1` (relative stereo) [Example 1140, cis-N-[1-(4-bromophenyl)ethyl]-4-{[4-(dimethylamino)quinazolin-2-yl]amino}cyclohexanecarboxamide]: the IC50 is below 50 nM.

On to `COc1cccc(NCC(=O)N[C@H]2CC[C@@H](Nc3nc(N(C)C)c4ccccc4n3)CC2)c1` [Example 1090, N-(cis-4-{[4-(dimethylamino)quinazolin-2-yl]amino}cyclohexyl)-N2-(3-methoxyphenyl)glycinamide], for which the IC50 is below 50 nM.

For `Cc1ccc(Cl)cc1CNC(=O)[C@H]1CC[C@@H](Nc2nc(N(C)C)c3ccccc3n2)CC1` [Example 1145, cis-N-(5-chloro-2-methylbenzyl)-4-{[4-(dimethylamino)quinazolin-2-yl]amino}cyclohexanecarboxamide], the IC50 lay in the range of 50 to 200 nM.

Turning to `Cc1ccc(Cl)c(CNC(=O)[C@H]2CC[C@@H](Nc3nc(N(C)C)c4ccccc4n3)CC2)c1F` [Example 1150, cis-N-(6-chloro-2-fluoro-3-methylbenzyl)-4-{[4-(dimethylamino)quinazolin-2-yl]amino}cyclohexanecarboxamide], the IC50 was below 50 nM.

On to `C[C@@H](NC(=O)[C@H]1CC[C@@H](Nc2nc(N(C)C)c3ccccc3n2)CC1)c1ccc(Cl)cc1` [Example 1139, cis-N-[(1R)-1-(4-chlorophenyl)ethyl)-4-{[4-(dimethylamino)quinazolin-2-yl]amino}cyclohexanecarboxamide], for which the IC50 is below 50 nM.

The values above are taken from patent US20070010671A1, “Novel quinazoline derivatives and methods of treatment related to the use thereof” (priority 2003, published 2007).
